Measured values reported in US20230192705A1, “SHP2 INHIBITORS, COMPOSITIONS AND USES THEREOF” (Betta Pharmaceuticals Co., Ltd, priority 2020, published 2023).
pIC50: −log10 of the molar value.

Target: T1, SHP2 (Homo sapiens, UniProt Q06124)
T1 sequence (Q06124 1-593): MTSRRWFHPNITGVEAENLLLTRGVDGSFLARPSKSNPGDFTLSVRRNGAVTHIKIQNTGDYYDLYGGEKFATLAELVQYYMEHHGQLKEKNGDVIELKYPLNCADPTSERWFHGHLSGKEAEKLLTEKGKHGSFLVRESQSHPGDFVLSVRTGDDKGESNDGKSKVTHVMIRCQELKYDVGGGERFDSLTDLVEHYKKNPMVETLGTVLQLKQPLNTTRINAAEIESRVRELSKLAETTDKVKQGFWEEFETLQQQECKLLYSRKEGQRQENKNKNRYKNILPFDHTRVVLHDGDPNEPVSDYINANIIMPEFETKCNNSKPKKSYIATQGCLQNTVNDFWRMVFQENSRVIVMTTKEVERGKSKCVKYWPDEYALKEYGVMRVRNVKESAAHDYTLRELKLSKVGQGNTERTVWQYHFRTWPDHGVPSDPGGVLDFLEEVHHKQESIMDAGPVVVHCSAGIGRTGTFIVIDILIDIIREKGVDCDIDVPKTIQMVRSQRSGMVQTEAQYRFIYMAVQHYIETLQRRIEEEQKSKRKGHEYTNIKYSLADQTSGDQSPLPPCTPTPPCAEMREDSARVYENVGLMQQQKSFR
Assay: SHP2 allosteric inhibitor enzyme activity assay (DiFMUP fluorescence)
Assay type: biochemical
Settings: class symbols
Text: SHP2 is activated by the binding of a bis-tyrosyl-phosphorylated peptide to its Src homologous 2 (SH2) domain. This subsequent activation step leads to the release of the automatic inhibition interface of SHP2, which in turn activates the SHP2 protein tyrosine phosphatase (PTP) and can be used for substrate recognition and reaction catalysis. The catalytic activity of SHP2 was monitored using the alternative DiFMUP in a rapid fluorescence assay format.
Assay procedures are as follows:
(1) Compound Formulation:
The compound of the present invention (10 mM stock solution) was diluted to a suitable multiple with 100% DMSO and assay buffer, and the final test concentration of the compound of the present invention was 1 μM, 0.333 μM, 0.111 μM, 0.0370 μM, 0.0124 μM, 0.00412 μM, 0.00137 μM, 0.00046 μM, 0.00015 μM, 0.00 μM;
(2) Preparation of Enzyme Reaction Working Fluid:
SHP2 enzyme activity was performed using a final reaction volume of 50 μL and the following assay buffer conditions in 96-well black polystyrene plates (flat bottom, low flange, non-bonding surface) (Perki Elmer, Cat #6005270) at room temperature: 60 mM HEPES, 75 mM NaCl, 75 mM KCl, 0.05% BRIJ-35, 1 mM EDTA, 5 mM DTT.
(3) Enzyme Catalytic Reaction and Data Monitoring:
Compounds of the present invention were added to the corresponding 96-well plates, and no compound and enzyme were provided as blank test wells. SHP2 Activating Peptide (IRS1_pY1172 (dPEG8)pY1222) was placed on ice for melting, and 0.5 μM was added per well, then 0.2 ng SHP2 protein samples were added to corresponding well plates, and incubated at room temperature for 1 hour. Substrate DiFMUP (Invitrogen, Cat #D6567) was added to the reaction at room temperature for 1 hour. Fluorescence signals were monitored using an enzyme reader (Envision, Perki Elmer) using excitation wavelengths and emission wavelengths of 340 nm and 450 nm, respectively.
Inhibition %=[1−(Conversion_sample−Conversion_min)/(Conversion_max−Conversion_min)]*100% Calculation formula: […]
where: Conversion_sample is the mean reading of the sample wells; Conversion_min is the mean reading of blank control wells, representing the reading of the wells without enzyme; Conversion_max is the mean of positive control wells, representing the reading of the wells without inhibitor.
The dose-response curve is fitted with GraphPad Prism software and IC50 was calculated by the “log[inhibitor] vs. response-variable slope” program.

Structure (SMILES) | pIC50
N[C@@H]1c2ccccc2CC12CCN(c1nc3[nH]nc(C4(c5ccncc5F)CC4)c3c(=O)[nH]1)CC2 [Example 58, (S)-6-(1-amino-1,3-dihydrospiro[indene-2,4′-piperidin]-1′-yl)-3-(1-(3-fluoropyridin-4-yl)cyclopropyl)-1,5-dihydro-4H-pyrazolo[3,4-d]pyrimidin-4-one] | ≥ 7.70
N[C@@H]1c2ccccc2CC12CCN(c1nc3[nH]nc(C4=CCOc5ncccc54)c3c(=O)[nH]1)CC2 [Example 116, (S)-6-(1-amino-1,3-dihydrospiro[indene-2,4′-piperidin]-1′-yl)-3-(2H-pyrano[2,3-b]pyridin-4-yl)-1,5-dihydro-4H-pyrazolo[3,4-d]pyrimidin-4-one] | ≥ 7.70
Cn1c(N2CCC3(CC2)Cc2ccccc2[C@H]3N)nc2[nH]nc(C3(c4ccccc4)CCC3)c2c1=O [Example 91, (S)-6-(1-amino-1,3-dihydrospiro[indene-2,4′-piperidin]-1′-yl)-5-methyl-3-(1-phenylcyclobutyl)-1,5-dihydro-4H-pyrazolo[3,4-d]pyrimidin-4-one] | ≥ 7.70
N[C@@H]1c2ccccc2CC12CCN(c1nc3[nH]nc(C4(c5ccc6ncccc6c5)CC4)c3c(=O)[nH]1)CC2 [Example 14, (S)-6-(1-amino-1,3-dihydrospiro[indene-2,4′-piperidin]-1′-yl)-3-(1-(quinolin-6-yl)cyclopropyl)-1,5-dihydro-4H-pyrazolo[3,4-d]pyrimidin-4-one] | ≥ 7.70
N[C@@H]1c2ccccc2CC12CCN(c1nc3[nH]nc(C4(c5ccnc(Cl)c5Cl)CC4)c3c(=O)[nH]1)CC2 [Example 48, (S)-6-(1-amino-1,3-dihydrospiro[indene-2,4′-piperidin]-1′-yl)-3-(1-(2,3-dichloropyridin-4-yl)cyclopropyl)-1,5-dihydro-4H-pyrazolo[3,4-d]pyrimidin-4-one] | ≥ 7.70
CN(C)c1cc(C2(c3n[nH]c4nc(N5CCC6(CC5)Cc5ccccc5[C@H]6N)[nH]c(=O)c34)CC2)ccn1 [Example 54, (S)-6-(1-amino-1,3-dihydrospiro[indene-2,4′-piperidin]-1′-yl)-3-(1-(2-(dimethylamino)pyridin-4-yl)cyclopropyl)-1,5-dihydro-4H-pyrazolo[3,4-d]pyrimidin-4-one] | ≥ 7.70
N[C@@H]1c2ccccc2CC12CCN(c1nc3[nH]nc(C4(c5cccc(-c6ccccc6)c5)CC4)c3c(=O)[nH]1)CC2 [Example 63, (S)-3-(1-([1,1′-biphenyl]-3-yl)cyclopropyl)-6-(1-amino-1,3-dihydrospiro[indene-2,4′-piperidin]-1′-yl)-1,5-dihydro-4H-pyrazolo[3,4-d]pyrimidin-4-one] | ≥ 7.70
N[C@@H]1c2ccccc2CC12CCN(c1nc3[nH]nc(C4(c5ccnc6c5CCCN6)CC4)c3c(=O)[nH]1)CC2 [Example 79, (S)-6-(1-amino-1,3-dihydrospiro[indene-2,4′-piperidin]-1′-yl)-3-(1-(5,6,7,8-tetrahydro-1,8-naplitliyridin-4-yl)cyclopropyl)-1,5-dihydro-4H-pyrazolo[3,4-d]pyrimidin-4-one] | ≥ 7.70
Cc1nc2c(s1)C(c1n[nH]c3nc(N4CCC5(CC4)Cc4ccccc4C5N)[nH]c(=O)c13)=CC(C)(C)C2 (stereo not drawn) [Example 129] | 7.22 to 7.70

The next lines start with the values.

pIC50 | Structure (SMILES)
≥ 7.70 | N[C@@H]1c2cc(Cl)ccc2CC12CCN(c1nc3[nH]nc(C4(c5ccccc5)CC4)c3c(=O)[nH]1)CC2 [Example 194, (S)-6-(1-amino-6-chloro-1,3-dihydrospiro[indene-2,4′-piperidin]-1′-yl)-3-(1-phenylcyclopropyl)-1,5-dihydro-4H-pyrazolo[3,4-d]pyrimidin-4-one]
7.22 to 7.70 | C[C@@H]1OCC2(CCN(c3nc4[nH]nc(C5(c6ccc7ocnc7c6)CC5)c4c(=O)[nH]3)CC2)[C@@H]1N [Example 287, 6-((3S,4S)-4-amino-3-methyl-2-oxa-8-azaspiro[4.5]decan-8-yl)-3-(1-(benzo[d]oxazol-5-yl)cyclopropyl)-1,5-dihydro-4H-pyrazolo[3,4-d]pyrimidin-4-one]
7.22 to 7.70 | C[C@@H]1OCC2(CCN(c3nc4[nH]nc(C5(c6ccc(F)c(F)c6)CC5)c4c(=O)[nH]3)CC2)[C@@H]1N [Example 295, 6-((3S,4S)-4-amino-3-methyl-2-oxa-8-azaspiro[4.5]decan-8-yl)-3-(1-(3,4-difluorophenyl)cyclopropyl)-1,5-dihydro-4H-pyrazolo[3,4-d]pyrimidin-4-one]
≥ 7.70 | N[C@@H]1c2ccccc2CC12CCN(c1nc3[nH]nc(C4(c5coc6ccccc56)CC4)c3c(=O)[nH]1)CC2 [Example 250, (S)-6-(1-amino-1,3-dihydrospiro[indene-2,4′-piperidin]-1′-yl)-3-(1-(benzofuran-3-yl)cyclopropyl)-1,5-dihydro-4H-pyrazolo[3,4-d]pyrimidin-4-one]
7.22 to 7.70 | C[C@@H]1OCC2(CCN(c3nc4[nH]nc(C5(c6ccncn6)CC5)c4c(=O)[nH]3)CC2)[C@@H]1N [Example 273, 6-((3S,4S)-4-amino-3-methyl-2-oxa-8-azaspiro[4.5]decan-8-yl)-3-(1-(pyrimidin-4-yl)cyclopropyl)-1,5-dihydro-4H-pyrazolo[3,4-d]pyrimidin-4-one]
≥ 7.70 | CC1(C)C=C(c2n[nH]c3nc(N4CCC5(CC4)Cc4ccccc4[C@H]5N)[nH]c(=O)c23)c2cn(CC(F)(F)F)nc2C1 [Example 154, (S)-6-(1-amino-1,3-dihydrospiro[indene-2,4′-piperidin]-1′-yl)-3-(6,6-dimethyl-2-(2,2,2-trifluoroethyl)-6,7-dihydro-2H-indazol-4-yl)-1,5-dihydro-4H-pyrazolo[3,4-d]pyrimidin-4-one]
7.22 to 7.70 | CC1(C)C=C(c2n[nH]c3nc(N4CCC5(CC4)Cc4ccccc4[C@H]5N)[nH]c(=O)c23)c2sc(N)nc2C1 [Example 159, (S)-6-(1-amino-1,3-dihydrospiro[indene-2,4′-piperidin]-1′-yl)-3-(2-amino-5,5-dimethyl-4,5-dihydrobenzo[d]thiazol-7-yl)-1,5-dihydro-4H-pyrazolo[3,4-d]pyrimidin-4-one]
≥ 7.70 | N[C@@H]1c2ccccc2CC12CCN(c1nc3[nH]nc(C4=CCOc5cc(C(F)(F)F)ccc54)c3c(=O)[nH]1)CC2 [Example 168, (S)-6-(1-amino-1,3-dihydrospiro[indene-2,4′-piperidin]-1′-yl)-3-(7-(trifluoromethyl)-2H-chromen-4-yl)-1,5-dihydro-4H-pyrazolo[3,4-d]pyrimidin-4-one]
< 7.22 | C[C@@H]1OCC2(CCN(c3cnc4c(C5(c6ccccc6)CC5)c[nH]c4n3)CC2)[C@@H]1N [Example 269, (3S,4S)-3-methyl-8-(7-(1-phenylcyclopropyl)-5H-pyrrolo[2,3-b]pyrazin-3-yl)-2-oxa-8-azaspiro[4.5]decan-4-amine]
7.22 to 7.70 | C[C@@H]1OCC2(CCN(c3nc4[nH]nc(C5(c6cccs6)CC5)c4c(=O)[nH]3)CC2)[C@@H]1N [Example 278, 6-((3S,4S)-4-amino-3-methyl-2-oxa-8-azaspiro[4.5]decan-8-yl)-3-(1-(thiophen-2-yl)cyclopropyl)-1,5-dihydro-4H-pyrazolo[3,4-d]pyrimidin-4-one]
7.22 to 7.70 | C[C@@H]1OCC2(CCN(c3nc4[nH]nc(C5(c6cccc(O)c6)CC5)c4c(=O)[nH]3)CC2)[C@@H]1N [Example 310, 6-((3S,4S)-4-amino-3-methyl-2-oxa-8-azaspiro[4.5]decan-8-yl)-3-(1-(3-hydroxyphenyl)cyclopropyl)-1,5-dihydro-4H-pyrazolo[3,4-d]pyrimidin-4-one]
≥ 7.70 | N[C@@H]1c2ccccc2CC12CCN(c1nc3[nH]nc(C4=CCNc5ccccc54)c3c(=O)[nH]1)CC2 [Example 177, (S)-6-(1-amino-1,3-dihydrospiro[indene-2,4′-piperidin]-1′-yl)-3-(1,2-dihydroquinolin-4-yl)-1,5-dihydro-4H-pyrazolo[3,4-d]pyrimidin-4-one]
